Reference: US6905706B2, “Medicinal herbal extract carpediol for treating depression” (Swedish Herbal Institute, priority 2002, dated 2005)

Experiment: Effect of co-administered extracts on the pharmacokinetics of theophylline in rats
Settings: male, Wistar, rat, in vivo; for Cmax: Cmax of Theophylline; for AUC(0-inf): AUC0-∞ of Theophylline; for MRT: MRT of Theophylline
Description: Carpediol spissum (Batch No Ex 20404); Swedish Herbal Institute, Gothenburg, Sweden) as described above in Example 1. […] It was analyzed for purity by HPLC, Capillary electrophoresis, ^1H-NMR and ^13C-NMR. • (e) Internal standard: Methyl-4-hydroxybenzoate 99%, F.W. 152.15 Aldrich. • (f) Water, demonized and distilled. • (g) Water for High Performance Capillary Electrophoresis (HPCE), HEWLETT-PACKARD. • (h) Buffer pH=9.3 for HPCE (50 mM Borate). • (i) 0.1N Sodium Hydroxide Solution for HPCE. • (j) Chloroform HPLC grade. • (k) 2-Propanol spectrophotometric grade. • (l) Methanol Chromasorv.
Animals—In this study, 144 time-mated male Wistar rats were used. Breeder: Institute of Fine Organic Chemistry of the National Academy of Science, Yerevan. The initial weight of the animals: 130-170 g (mean weight 149.93±12.4 g). […] All animals were clinically examined upon arrival and any animal showing signs of abnormality or disease was excluded. Animals considered unsuitable for the study were replaced before the start. No animal was replaced following the start of the study.
Dosage and Administration—An appropriate amount of herbal extract was dissolved in distilled water and given at 10:00-10:30 am by oral gavage. Suspensions were shaken gently before oral administration. Suspensions were prepared fresh every day. Control animals were given an appropriate volume of drinking water. Blood samples from rats receiving the carrier only were also analyzed.
Groups of six animals were treated orally with water (10 ml×2 times per day) for three days. 60 minutes after last administration of water, a solution of Aminophylline (10 ml/kg) was given to each animal in dose of 240 mg/kg (corresponding to 192 mg/kg of Theophylline) and blood samples were taken 0.25, 0.5, 1.0, 2.0, 4.0, 6.0 and 8.0 hours after the theophylline administration. A separate group of animals was used for each time point.
It was administered orally in a volume of 10 ml/kg of body weight. Freshly prepared extract was administered two times daily for 3 consecutive days. Single dose—25 mg/kg, daily dose—50 mg/kg. 60 minutes after last administration, a water solution of Aminophylline (10 ml/kg) was given to each animal in dose of 240 mg/kg (corresponding to 192 mg/kg of Theophylline) and blood samples were taken 0.25, 0.5, 1.0, 2.0, 4.0, 6.0 and 8.0 hours after the theophylline administration. A separate group of animals was used for each time point.
One tablet of Jarsin 300 was suspended in 10 ml of water and administered two times daily for 3 consecutive days. 60 minutes after last administration, water solution of Aminophylline (10 ml/kg) was given to each animal in dose of 240 mg/kg (corresponding to 192 mg/kg of Theophylline) and blood samples were taken 0.25, 0.5, 1.0, 2.0, 4.0, 6.0 and 8.0 hours after the theophylline administration. A separate group of animals was used for each time point.
Sampling of blood and sample preparation—Animals were sacrificed by laboratory guillotine. Following decapitation, blood was collected separately in centrifuge tubes and centrifuged at 3000 rpm for 10 min. Blood serum was separated and 50 μl was taken for theophylline assay. Conservation of the samples: the centrifuge tubes were closed with caps, frozen and stored in a freezer for 1-3 days prior to bio-assay.
Analytical Method: Capillary Electrophoresis—A modified capillary electrophoresis method was used, using an internal standard and as a mobile phase 50 mM borate buffer (pH 9.3) without SDS.
Pre-assay preparation—The Ramzan et al. method (52) of extraction of theophylline from serum was modified as follows. 50 μl of blood serum was added to 10 μl of an internal standard methanol solution (methyl-paraben, 60 μg/ml) in centrifuge tube to obtain final concentration of methyl paraben 10 μg/ml. The solution was vortexed vigorously for 10 sec and 1 ml of solvent system of isopropanol. and chloroform in a 5:95 ratio was added for extraction.

[1] = Concentration of Theophylline in Rat Serum, Mean, Group 2 (CRE pretreatment 3 days), aminophylline 240 mg/kg p.o., mean n=6
[2] = Concentration of Theophylline in Rat Serum, Mean, Group 3 (Jarsin 300 pretreatment 3 days), aminophylline 240 mg/kg p.o., mean n=6
[3] = po, 240 mg/kg, Group 2 (CRE pretreatment), rats, calculated by mean concentrations
[4] = po, 240 mg/kg, Mean, Group 1 (water control), rats, mean of 6 series (column A)
[5] = po, 240 mg/kg, Mean, Group 2 (CRE pretreatment), rats, mean of 6 series (column A)
[6] = po, 240 mg/kg, Mean, Group 3 (Jarsin 300 pretreatment), rats, mean of 6 series (column A)
[7] = po, Group 3 (Jarsin 300 pretreatment), rats, calculated by mean concentrations
[8] = po, Mean, Group 3 (Jarsin 300 pretreatment), rats, mean of 6 series (column A)
[9] = po, Mean, Group 2 (CRE pretreatment), rats, mean of 6 series (column A)

`Cn1c(=O)c2[nH]cnc2n(C)c1=O` [Theophylline, 1,3-dimethylxantin] showed a concentration at 480 min (240 mg/kg, Level of theophylline in serum after 480 minutes, Group 1 (water control), rats) of roughly 51000 ng/mL, a Cmax (Group 2 (CRE pretreatment), rats, calculated by mean concentrations, 60 minutes) of 142000 ng/mL and a Cmax (Group 3 (Jarsin 300 pretreatment), rats, calculated by mean concentrations, 60 minutes) of 41600 ng/mL. It also gave a concentration at 60 min (Concentration of Theophylline in Rat Serum, Group 2 (CRE pretreatment 3 days), aminophylline 240 mg/kg p.o., single rat) of 109000 ng/mL, a concentration at 15 min (Concentration of Theophylline in Rat Serum, Group 3 (Jarsin 300 pretreatment 3 days), aminophylline 240 mg/kg p.o., single rat) of 6640 ng/mL and a concentration at 15 min [1] of 128000 ng/mL. The concentration at 30 min [1] was 138000 ng/mL, the concentration at 60 min [1] was 142000 ng/mL and the concentration at 120 min [1] was 130000 ng/mL. For the same molecule, the concentration at 240 min [1] was 103000 ng/mL, the concentration at 360 min [1] was 71000 ng/mL and the concentration at 480 min (Concentration of Theophylline in Rat Serum, Mean, Group 2 (CRE pretreatment 3 days), aminophylline 240 mg/kg p.o., 480 min, mean n=6) was 31800 ng/mL. The concentration at 15 min [2] was 5170 ng/mL, the concentration at 30 min [2] was 25500 ng/mL and the concentration at 60 min [2] was 41600 ng/mL. For the same molecule, the concentration at 120 min [2] was 31100 ng/mL, the concentration at 240 min [2] was 16500 ng/mL and the concentration at 360 min [2] was 15700 ng/mL. The concentration at 480 min (Concentration of Theophylline in Rat Serum, Mean, Group 3 (Jarsin 300 pretreatment 3 days), aminophylline 240 mg/kg p.o., 480 min, mean n=6) was 9280 ng/mL, the concentration at 480 min (Theophylline concentration in serum after 480 minutes, Group 2 (rats treated with CRE)) was roughly 32000 ng/mL and the concentration at 480 min (Theophylline concentration in serum after 480 minutes, Group 3 (rats treated with Jarsin 300)) was roughly 9300 ng/mL. It also gave an AUC(0-inf) (po, 240 mg/kg, Group 1 (water control), rats, single series) of 1090 µg·h/mL, an AUC(0-inf) [3] of 956 µg·h/mL and an AUC(0-inf) (po, 240 mg/kg, Mean, Group 1 (water control), rats, mean of 6 series) of 1020 µg·h/mL. The AUC(0-inf) [4] was 1020 ± 109 µg·h/mL, the AUC(0-inf) [5] was 920 ± 128 µg·h/mL and the AUC(0-inf) (po, 240 mg/kg, Mean, Group 3 (Jarsin 300 pretreatment), rats, mean of 6 series) was 214 µg·h/mL. The Cmax [4] was 195000 ng/mL, the Cmax [5] was 169000 ± 14400 ng/mL and the Cmax [6] was 43900 ng/mL. For the same molecule, the MRT (po, 240 mg/kg, Group 1 (water control), rats, calculated by mean concentrations) was 6.83 h, the MRT [3] was 5.14 h and the MRT [4] was 6.62 h. For the same molecule, the MRT [5] was 4.45 ± 0.696 h, the MRT [6] was 5.44 h and the half-life (po, 240 mg/kg, T1/2 of Theophylline, Group 1 (water control), rats, calculated by mean concentrations) was 4.66 h. The half-life (po, 240 mg/kg, T1/2 of Theophylline, Group 2 (CRE pretreatment), rats, calculated by mean concentrations) was 3.39 h, the half-life (po, 240 mg/kg, T1/2 of Theophylline, Mean, Group 2 (CRE pretreatment), rats, mean of 6 series (column A)) was 2.81 ± 0.404 h and the half-life (po, 240 mg/kg, t1/2 of Theophylline, Mean, Group 1 (water control), rats, mean of 6 series (column A)) was 4.5 h. For the same molecule, the half-life (po, 240 mg/kg, t1/2 of Theophylline, Mean, Group 3 (Jarsin 300 pretreatment), rats, mean of 6 series (column A)) was 3.55 h, the AUC(0-inf) (po, Group 1 (water control), rats, calculated by mean concentrations) was 1030 µg·h/mL and the AUC(0-inf) [7] was 208 µg·h/mL. It also gave an AUC(0-inf) (po, Mean, Group 2 (CRE pretreatment), rats, mean of 6 series) of 920 µg·h/mL, an AUC(0-inf) [8] of 214 ± 31 µg·h/mL and a Cmax (po, Group 2 (CRE pretreatment), rats, single series) of 158000 ng/mL. It also gave a Cmax (po, Group 3 (Jarsin 300 pretreatment), rats, calculated by mean concentrations, 60 minutes) of 41600 ng/mL, a Cmax [9] of 169000 ng/mL and a Cmax [8] of 43900 ± 8490 ng/mL. The MRT [7] was 5.36 h, the MRT [9] was 4.45 h and the MRT [8] was 5.44 ± 0.559 h. The half-life (po, T1/2 of Theophylline, Group 3 (Jarsin 300 pretreatment), rats, calculated by mean concentrations) was 3.43 h, the half-life (po, T1/2 of Theophylline, Mean, Group 2 (CRE pretreatment), rats, mean of 6 series (column A)) was 2.81 h and the half-life (po, t1/2 of Theophylline, Mean, Group 3 (Jarsin 300 pretreatment), rats, mean of 6 series (column A)) was 3.55 ± 0.549 h.
